According to patent US20250099393A1, “IONIZABLE LIPIDS, LIPID NANOPARTICLES, AND USES THEREOF” (Verily Life Sciences LLC, priority 2022, published 2025):

Experiment: pKa of the ionizable lipid (ethanolamine headgroup)
Type: physicochemical
Details: uncharged at physiological pH

CCCCC/C=C\C/C=C\CCCCCCCCOC(=O)CCCCCCCN(CCO)CCCCCCCC(=O)OC(CCCCCCCC)CCCCCCCC [PCTA-1]
pKa: 6.2 to 6.8
